Read-outs that look alike come from different tables or passages of the source.
How the values were obtained:
[1] = system: promastigotes L. braziliensis/ L. amazonensis; test: in vitro anti-Leishmania activity, promastigotes (Table 1S); type: cell-based; conditions: read-out: IC50 ± %SD (µM) promastigotes L. braziliensis/ L. amazonensis
[2] = system: L. amazonensis (promastigotes); test: in vitro anti-Leishmania activity, promastigotes, resazurin; type: cell-based; conditions: maximum dose tested 25 µM, read-out: IC50 ± %SD (µM) L. amazonensis
[3] = system: T. cruzi epimastigotes, Tulahuen 2 strain (genotype TcVI); test: in vitro anti-T. cruzi activity, epimastigote growth (absorbance 600 nm); type: cell-based, Trypanosoma cruzi
Experimental: Control parasites were cultivated in 0.4% DMSO. Each concentration of the compound was evaluated in duplicate.

[4] = system: L. infantum (MHOM/BR/2002/LPC-RPV) promastigotes; test: in vitro anti-Leishmania activity, promastigotes, resazurin; type: cell-based, Leishmania infantum
[5] = system: L. infantum .uy (parasites isolated from two dogs in the first Leishmaniasis outbreak in Uruguay); test: in vitro activity against L. infantum isolated from dogs in Uruguay; type: cell-based, Leishmania infantum; conditions: for IC50: Leishmania infantum, read-out: IC50 ± %SD (µM) L. infantum .uy
Experimental: Compounds were dissolved in dimethylsulfoxide (DMSO).
For assessing the amastigote form of all Leishmania strains were cultured in the RPMI described above. Parasites were seeded at 1 × 10^6 cells/mL and at each time point counted at least five times to obtain a growth curve. […] Control conditions of parasites without drug (100% growth) and medium without parasites were included. After 72 h at 28 °C parasite viability was determined by the resazurin method described. Infection with L. infantum. THP-1 monocytes (ATCC®TIB-202™) were grown following ATCC recommendations and seeded at 30,000 cells/well onto 18-mm round glass coverslips in 12 wells. For stimulation cells were incubated with 100 nM of PMA for 48 h, PMA was washed and cells left with growth media for 24 h more after incubation with parasites. 30,000 parasites/well were added and left to interact. After 48 h, coverslips were washed with PBS, fixed with 95% (v/v) ethanol, and stained with Fluoroshield™ with DAPI (Sigma). Infectivity was assessed considering invasion and replication capacity counting infected cells and parasites per infected cell, respectively. Infectivity index calculation = (% of infected cells X (amastigotes per cell))/number of total counted cells. Image acquisition was made with a Leica TCS-SP5 laser scanning confocal microscope (Leica Microsystems GmbH, Wetzlar, Germany) using the LASAF v.2 software (Leica Microsystems, Wetzlar, Germany) and observed using a 356 nm laser excitation line and an emission bandwidth from 461 nm under a 20× water immersion objective. Further image analysis, including quantitation and processing of figures were made using Fiji (http://fiji.sc/).

[6] = system: J774.1 murine macrophages; test: nonspecific cytotoxicity on mammalian cells, MTT; type: cell-based; conditions: for IC50: Mus musculus, J774.1, 48 h, MTT, read-out: IC50 ± SD (µM) Murine Macrophages; for SI J774.1/T. cruzi: ratio IC50 murine macrophages / IC50 T. cruzi epimastigotes
[7] = Trypanosoma cruzi, TULAHUEN, epimastigotes, maximum dose tested 25 µM, read-out: IC50 ± %SD (µM) T. cruzi
[8] = Leishmania infantum, promastigotes, maximum dose tested 25 µM, read-out: IC50 ± %SD (µM) L. infantum
[9] = parasites isolated from two dogs in Uruguay, maximum dose tested 25 µM

SMILES	IC50 [1] [µM]	IC50 [2] [µM]	IC50 [3, 7] [µM]	melting point [°C]	IC50 [4, 8] [µM]	IC50 [5] [µM]	further results
C[C@]12CC[C@H]3[C@@H](CC=C4CC(O)CC[C@@]43C)[C@@H]1CC[C@@H]2C(=O)/C=C/c1cccnc1Br (some centres unmarked) [Compound 1]	> 25	> 25	> 25	193 to 195	> 25	> 25	–
C[C@]12CC[C@H]3[C@@H](CC=C4CC(O)CC[C@@]43C)[C@@H]1CC[C@@H]2C(=O)/C=C/c1ccc(Cl)cc1 (stereo partly drawn) [Compound 3, (2E)-3-(4-Chlorophenyl)-1-((10R,13S)-2,3,4,7,8,9,10,11,12,13,14,15,16,17-tetradecahydro-3(β)-hydroxy-10,13-dimethyl-1H-cyclo-penta[a]phenanthren-17(β)-yl)prop-2-en-1-one]	> 25	> 25	> 25	159 to 161	> 25	> 25	–
C[C@]12CC[C@H]3[C@@H](CC=C4CC(O)CC[C@@]43C)[C@@H]1CC[C@@H]2C(=O)/C=C/c1cccc(Br)c1 (some centres unmarked) [Compound 4]	> 25	> 25	20 ± 5	159 to 161	> 25	> 25	activity against Leishmania infantum from Fiocruz collection, in words [4]: active; active against the strains isolated from Uruguayan dogs, in words [5]: not
C[C@]12CC[C@H]3[C@@H](CC=C4CC(O)CC[C@@]43C)[C@@H]1CC[C@@H]2C(=O)/C=C/c1ccccc1 (stereo partly drawn) [Compound 5, (2E)-1-((10R,13S)-2,3,4,7,8,9,10,11,12,13,14,15,16,17-tetradecahydro-3(β)-hydroxy-10,13-dimethyl-1H-cyclopenta[a]phenan-thren-17(β)-yl)-3-phenylprop-2-en-1-one]	> 25	> 25	> 25	–	> 25	> 25	–
C[C@]12CC[C@H]3[C@@H](CC=C4CC(O)CC[C@@]43C)[C@@H]1CC[C@@H]2C(=O)/C=C/C=C/c1ccccc1 (stereo partly drawn) [Compound 6, (2E,4E)-1-((8S,9S,10R,13S,14S,17S)-3-hydroxy-10,13-dimethyl-2,3,4,7,8,9,10,11,12,13,14,15,16,17-tetradecahydro-1H-cyclopenta[a]phenanthren-17-yl)-5-phenylpenta-2,4-dien-1-one]	> 25	> 25	> 25	116 to 119	> 25	> 25	–
C[C@]12CC[C@H]3[C@@H](CC=C4CC(O)CC[C@@]43C)[C@@H]1CC[C@@H]2C(=O)/C=C/C=C/c1ccco1 (stereo partly drawn) [Compound 7, (2E,4E)-5-(furan-2-yl)-1-((8S,9S,10R,13S,14S,17S)-3-hydroxy-10,13-dimethyl-2,3,4,7,8,9,10,11,12,13,14,15,16,17-tetradecahydro-1H-cyclopenta[a]phenanthren-17-yl)penta-2,4-dien-1-one]	> 25	> 25	> 25	100 to 103	> 25	> 25	–
C=CCn1c(C(=O)N2CCN(CC=Cc3ccccc3)CC2)cs/c1=N/N=C(/C)[C@@H]1CC[C@H]2[C@@H]3CC=C4CC(O)CC[C@]4(C)[C@H]3CC[C@]12C (stereo partly drawn) [Compound 12, ((Z)-3-allyl-2-((E)-(1-((8S,9S,10R,13S,14S,17R)-3-hydroxy-10,13-dimethyl-2,3,4,7,8,9,10,11,12,13,14,15,16,17-tetradecahydro-1H-cyclopenta[a]phenanthren-17-yl)ethylidene)hydrazono)-2,3-dihydrothiazol-4-yl)(4-cinnamylpiperazin-1-yl)methanone]	> 25	–	> 25	–	> 25	> 25	–
C/C(=N\Nc1nc(C(=O)N2CCN(C/C=C\c3ccccc3)CC2)cs1)[C@@H]1CC[C@H]2[C@@H]3CC=C4CC(O)CC[C@]4(C)[C@H]3CC[C@]12C (stereo partly drawn) [Compound 13, (2-((E)-2-(1-((8S,9S,10R,13S,14S,17R)-3-hydroxy-10,13-dimethyl-2,3,4,7,8,9,10,11,12,13,14,15,16,17-tetradecahydro-1H-cyclopenta[a]phenanthren-17-yl)ethylidene)hydrazinyl)thiazol-4-yl)(4-((Z)-3-phenylallyl)piperazin-1-yl)methanone]	> 25	–	> 25	–	> 25	> 25	–
C=CCn1c(C(=O)NCC(=O)OCC)cs/c1=N/N=C(/C)[C@@H]1CC[C@H]2[C@@H]3CC=C4CC(O)CC[C@]4(C)[C@H]3CC[C@]12C (stereo partly drawn) [Compound 14, Ethyl-2-((Z)-3-allyl-2-((E)-(1-((8S,9S,10R,13S,14S,17R)-3-hydroxy-10,13-dimethyl-2,3,4,7,8,9,10,11,12,13,14,15,16,17-tetradecahydro-1H-cyclopenta[a]phenanthren-17-yl)ethylidene)hydrazono)-2,3-dihydrothiazole-4-carboxamido)acetate]	> 25	–	8 ± 2	–	> 25	> 25	IC50 [6]: 100 ± 8 µM; SI J774.1/T. cruzi [6]: 13; activity against Leishmania infantum from Fiocruz collection, in words [4]: active; active against the strains isolated from Uruguayan dogs, in words [5]: not
C/C(=N/N=c1\[nH]c(C(=O)O)cs1)[C@@H]1CC[C@H]2[C@@H]3CC=C4CC(O)CC[C@]4(C)[C@H]3CC[C@]12C (stereo partly drawn) [Compound 18, (Z)-2-((E)-(1-((8S,9S,10R,13S,14S,17R)-3-hydroxy-10,13-dimethyl-2,3,4,7,8,9,10,11,12,13,14,15,16,17-tetradecahydro-1H-cyclopenta[a]phenanthren-17-yl)ethylidene)hydrazono)-2,3-dihydrothiazole-4-carboxylic acid]	–	–	–	281 to 283	–	–	–
C=CCn1c(C(=O)O)cs/c1=N/N=C(/C)[C@@H]1CC[C@H]2[C@@H]3CC=C4CC(O)CC[C@]4(C)[C@H]3CC[C@]12C (stereo partly drawn) [Compound 19, (Z)-3-allyl-2-((E)-(1-((8S,9S,10R,13S,14S,17R)-3-hydroxy-10,13-dimethyl-2,3,4,7,8,9,10,11,12,13,14,15,16,17-tetradecahydro-1H-cyclopenta[a]phenanthren-17-yl)ethylidene)hydrazono)-2,3-dihydrothiazole-4-carboxylic acid]	–	–	–	145 to 149	–	–	–
C=CCn1c(-c2ccc(Cl)cc2)csc1=NN=C(C)[C@H]1CC[C@H]2[C@@H]3CC=C4C[C@@H](O)CC[C@]4(C)[C@H]3CC[C@]12C [Compound 20, 1-(3β-Hydroxy-pregn-5-ene-20E-ylidene)-2-(3-allyl-4-(4-chloro-pheny)thiazol-2(3H)-ylidene)azine]	> 25	–	–	–	–	–	IC50 ([3]; Table 1S, read-out: IC50 ± %SD (µM) epimastigotes T. cruzi): > 25 µM; IC50 ([4]; Table 1S, read-out: IC50 ± %SD (µM) promastigotes L. infantum): > 25 µM
CCCCCCCCCCCCCCCCOP(=O)([O-])OCC[N+](C)(C)C [Miltefosine, reference compound]	–	–	8 ± 2	–	0.9 ± 0.2	–	IC50 [6]: 50 ± 7 µM; SI J774.1/L. infantum ([6]; ratio IC50 murine macrophages / IC50 L. infantum promastigotes): 56; SI J774.1/T. cruzi [6]: 6; IC50 [5, 9]: 5 ± 2 µM
CC1CS(=O)(=O)CCN1/N=C/c1ccc([N+](=O)[O-])o1 (centres unmarked) [Nifurtimox, reference compound]	–	–	7 ± 2	–	6 ± 2	–	IC50 [5, 9]: 10 ± 2 µM
CC(=O)[C@H]1CC[C@H]2[C@@H]3CC=C4C[C@@H](O)CC[C@]4(C)[C@H]3CC[C@]12C [Pregnenolone, 3β-hydroxyl-5-pregnen-20-one, reference compound]	–	> 25	> 25	–	> 25	–	IC50 [5, 9]: > 25 µM
